Measurements from patent publication US12552775B2, “Compounds and uses thereof” (Foghorn Therapeutics Inc., priority 2020, dated 2026).

Assays:
[1] = target: T1, HiBit-BRG1 fusion protein (Homo sapiens, UniProt P51532); test: HiBiT-BRG1 cell-based degradation assay (Nano-Glo HiBiT Lytic Detection, 24 h); settings: stable HeLa cell line expressing HiBit-BRG1 and LgBit, top dose 30 μM, read-out: BRG1 HiBit Degradation Maximum (%)
T1 construct: expressed in transfected cells
In short: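 HeLa cells stably expressing HiBiT-BRG1 plus LgBiT were treated with 10-point 3-fold compound dilutions (top 30 μM final) for 24 h. Lytic Nano-Glo HiBiT luminescence was read. % degradation was normalised between DMSO (high control) and 2 μM of a reference BRM/BRG1 degrader (low control).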

HiBit-BRM fusion protein = target: T2, HiBit-BRM fusion protein (Homo sapiens, UniProt P51531); test: HiBiT-BRM cell-based degradation assay (Nano-Glo HiBiT Lytic Detection, 24 h); settings: stable HeLa cell line expressing HiBiT-BRM, top dose 30 μM
T2 construct: expressed in transfected cells
In short: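 Percent degradation was scaled between DMSO-treated cells and cells given 2 μM of a known BRM/BRG1 degrader. Readout was NanoBiT luminescence after lytic detection. HeLa cells stably expressing HiBiT-BRM were dosed for 24 h, 10 points, 3-fold steps from 30 μM final, in duplicate.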

T2 sequence (P51531 whole entry, the tested form may be a part): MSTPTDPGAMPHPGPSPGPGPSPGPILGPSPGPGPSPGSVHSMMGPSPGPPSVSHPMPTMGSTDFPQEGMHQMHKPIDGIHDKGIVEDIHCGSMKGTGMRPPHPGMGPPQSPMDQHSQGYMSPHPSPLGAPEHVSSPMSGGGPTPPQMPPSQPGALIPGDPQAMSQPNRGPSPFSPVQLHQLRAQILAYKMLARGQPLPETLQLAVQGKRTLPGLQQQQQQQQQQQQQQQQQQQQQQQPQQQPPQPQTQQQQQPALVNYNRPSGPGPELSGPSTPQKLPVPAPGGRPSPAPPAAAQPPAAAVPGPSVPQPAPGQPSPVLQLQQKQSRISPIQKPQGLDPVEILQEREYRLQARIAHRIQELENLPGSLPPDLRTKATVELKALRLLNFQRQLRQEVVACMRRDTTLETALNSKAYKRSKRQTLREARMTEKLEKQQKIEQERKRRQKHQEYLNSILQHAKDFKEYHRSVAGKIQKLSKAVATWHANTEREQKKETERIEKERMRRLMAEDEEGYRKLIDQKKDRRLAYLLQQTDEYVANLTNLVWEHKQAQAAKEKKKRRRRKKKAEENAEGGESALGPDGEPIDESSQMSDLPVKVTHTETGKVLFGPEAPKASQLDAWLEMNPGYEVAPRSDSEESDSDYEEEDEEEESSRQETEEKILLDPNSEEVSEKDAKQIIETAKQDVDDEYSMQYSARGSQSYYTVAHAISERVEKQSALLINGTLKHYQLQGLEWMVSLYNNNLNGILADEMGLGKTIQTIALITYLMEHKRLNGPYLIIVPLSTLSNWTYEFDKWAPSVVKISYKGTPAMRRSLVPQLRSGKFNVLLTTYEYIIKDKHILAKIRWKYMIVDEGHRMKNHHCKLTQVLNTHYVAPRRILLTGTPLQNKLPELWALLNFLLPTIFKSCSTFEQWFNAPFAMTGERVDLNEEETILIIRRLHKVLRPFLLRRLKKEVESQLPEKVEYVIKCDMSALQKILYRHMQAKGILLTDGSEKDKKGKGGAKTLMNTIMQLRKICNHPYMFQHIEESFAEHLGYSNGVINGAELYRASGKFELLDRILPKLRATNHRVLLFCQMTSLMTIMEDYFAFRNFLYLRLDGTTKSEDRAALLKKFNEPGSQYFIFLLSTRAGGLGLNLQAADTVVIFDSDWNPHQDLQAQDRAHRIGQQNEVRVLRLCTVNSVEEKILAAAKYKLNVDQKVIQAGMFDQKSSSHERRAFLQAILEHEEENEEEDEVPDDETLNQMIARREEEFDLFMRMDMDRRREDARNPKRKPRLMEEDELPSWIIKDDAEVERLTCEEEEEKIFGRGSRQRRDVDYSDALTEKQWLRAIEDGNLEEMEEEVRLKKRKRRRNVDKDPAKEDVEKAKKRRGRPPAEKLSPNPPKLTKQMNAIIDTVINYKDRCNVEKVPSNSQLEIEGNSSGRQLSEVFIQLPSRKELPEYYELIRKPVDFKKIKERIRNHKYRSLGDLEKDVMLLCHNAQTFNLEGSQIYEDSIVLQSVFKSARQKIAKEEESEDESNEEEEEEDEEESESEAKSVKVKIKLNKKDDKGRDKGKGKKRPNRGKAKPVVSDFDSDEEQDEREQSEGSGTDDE
T1 sequence (P51532 whole entry, the tested form may be a part): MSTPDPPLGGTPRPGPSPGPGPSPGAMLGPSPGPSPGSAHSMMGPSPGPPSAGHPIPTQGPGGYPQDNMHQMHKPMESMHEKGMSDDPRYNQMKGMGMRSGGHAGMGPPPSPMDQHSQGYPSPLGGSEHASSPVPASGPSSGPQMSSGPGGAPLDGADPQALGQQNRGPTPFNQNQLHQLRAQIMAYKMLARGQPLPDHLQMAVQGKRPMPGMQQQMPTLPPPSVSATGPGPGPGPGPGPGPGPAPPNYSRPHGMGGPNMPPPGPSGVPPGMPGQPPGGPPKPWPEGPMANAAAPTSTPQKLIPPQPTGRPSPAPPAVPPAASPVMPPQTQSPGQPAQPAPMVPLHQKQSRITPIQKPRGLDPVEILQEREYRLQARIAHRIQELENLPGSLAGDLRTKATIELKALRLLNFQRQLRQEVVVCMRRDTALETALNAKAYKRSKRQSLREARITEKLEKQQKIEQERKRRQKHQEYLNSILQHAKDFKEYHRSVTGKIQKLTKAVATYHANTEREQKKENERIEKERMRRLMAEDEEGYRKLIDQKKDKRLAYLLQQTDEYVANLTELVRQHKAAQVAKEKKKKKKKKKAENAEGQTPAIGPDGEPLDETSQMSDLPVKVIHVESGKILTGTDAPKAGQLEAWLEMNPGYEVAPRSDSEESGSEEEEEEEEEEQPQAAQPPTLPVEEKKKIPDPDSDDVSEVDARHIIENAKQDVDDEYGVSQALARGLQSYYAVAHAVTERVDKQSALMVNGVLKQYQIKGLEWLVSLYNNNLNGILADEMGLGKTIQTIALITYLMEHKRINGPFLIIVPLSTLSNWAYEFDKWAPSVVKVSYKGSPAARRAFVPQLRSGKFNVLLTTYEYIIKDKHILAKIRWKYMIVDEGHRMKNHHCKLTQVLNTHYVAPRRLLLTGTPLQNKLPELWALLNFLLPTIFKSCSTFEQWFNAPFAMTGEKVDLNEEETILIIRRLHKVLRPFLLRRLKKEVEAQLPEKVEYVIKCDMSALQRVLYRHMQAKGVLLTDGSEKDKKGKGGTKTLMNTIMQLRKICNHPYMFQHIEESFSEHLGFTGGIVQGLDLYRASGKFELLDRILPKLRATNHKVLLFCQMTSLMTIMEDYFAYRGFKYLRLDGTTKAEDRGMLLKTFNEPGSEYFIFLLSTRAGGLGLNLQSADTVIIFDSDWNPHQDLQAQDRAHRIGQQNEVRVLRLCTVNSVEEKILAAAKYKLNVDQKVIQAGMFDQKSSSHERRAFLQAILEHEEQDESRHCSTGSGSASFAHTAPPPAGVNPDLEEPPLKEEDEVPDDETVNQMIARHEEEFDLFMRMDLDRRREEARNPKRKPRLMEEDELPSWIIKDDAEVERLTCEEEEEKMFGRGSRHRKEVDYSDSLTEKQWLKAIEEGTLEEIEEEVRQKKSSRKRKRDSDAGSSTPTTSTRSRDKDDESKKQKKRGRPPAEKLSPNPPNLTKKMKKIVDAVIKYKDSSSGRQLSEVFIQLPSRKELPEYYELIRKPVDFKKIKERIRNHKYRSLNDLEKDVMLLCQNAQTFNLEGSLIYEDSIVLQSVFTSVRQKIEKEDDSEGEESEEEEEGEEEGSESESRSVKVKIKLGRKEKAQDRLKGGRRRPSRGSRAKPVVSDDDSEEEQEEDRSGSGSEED

| SMILES | Dmax [1] | BRM HiBit Degradation Maximum (%) (HiBit-BRM fusion protein) |
| --- | --- | --- |
| Cc1ncsc1-c1ccc(CNC(=O)[C@@H]2C[C@@H](O)CN2C(=O)[C@@H](NC(=O)CCCCCCCCCC(=O)NCC23CC(COc4cc(-c5ccccc5O)nnc4N)(C2)C3)C(C)(C)C)cc1 [Compound 39, N1-((3-(((3-amino-6-(2-hydroxyphenyl)pyridazin-4-yl)oxy)methyl)bicyclo[1.1.1]pentan-1-yl)methyl)-N11-((S)-1-((2S,4R)-4-hydroxy-2-((4-(4-methylthiazol-5-yl)benzyl)carbamoyl)pyrrolidin-1-yl)-3,3-dimethyl-1-oxobutan-2-yl)undecanediamide] | < 50% | B (“B” indicates maximum degradation ≥ 50%) |
| Cc1ncsc1-c1ccc(CNC(=O)[C@@H]2C[C@@H](O)CN2C(=O)[C@@H](NC(=O)CCCCCCCCCCC(=O)NCC23CC(COc4cc(-c5ccccc5O)nnc4N)(C2)C3)C(C)(C)C)cc1 [Compound 38, N1-((3-(((3-amino-6-(2-hydroxyphenyl)pyridazin-4-yl)oxy)methyl)bicyclo[1.1.1]pentan-1-yl)methyl)-N12-((S)-1-((2S,4R)-4-hydroxy-2-((4-(4-methylthiazol-5-yl)benzyl)carbamoyl)pyrrolidin-1-yl)-3,3-dimethyl-1-oxobutan-2-yl)dodecanediamide] | < 50% | B (“B” indicates maximum degradation ≥ 50%) |
| Nc1nnc(-c2ccccc2O)cc1OCC12CC(CNC(=O)CCOCCOCCOc3cccc4c3C(=O)N(C3CCC(=O)NC3=O)C4=O)(C1)C2 (stereo not shown) [Compound 14, N-((3-(((3-amino-6-(2-hydroxyphenyl)pyridazin-4-yl)oxy)methyl)bicyclo[1.1.1]pentan-1-yl)methyl)-3-(2-(2-((2-(2,6-dioxopiperidin-3-yl)-1,3-dioxoisoindolin-4-yl)oxy)ethoxy)ethoxy)propanamide] | < 50% | C (“C” indicates maximum degradation < 50%) |
| Cc1ncsc1-c1ccc(CNC(=O)[C@@H]2C[C@@H](O)CN2C(=O)[C@@H](NC(=O)CCCCCCCCCCCCC(=O)NCC23CC(COc4cc(-c5ccccc5O)nnc4N)(C2)C3)C(C)(C)C)cc1 [Compound 40, N1-((3-(((3-amino-6-(2-hydroxyphenyl)pyridazin-4-yl)oxy)methyl)bicyclo[1.1.1]pentan-1-yl)methyl)-N14-((S)-1-((2S,4R)-4-hydroxy-2-((4-(4-methylthiazol-5-yl)benzyl)carbamoyl)pyrrolidin-1-yl)-3,3-dimethyl-1-oxobutan-2-yl)tetradecanediamide] | < 50% | B (“B” indicates maximum degradation ≥ 50%) |
| Cc1ncsc1-c1ccc(CNC(=O)[C@@H]2C[C@@H](O)CN2C(=O)[C@@H](NC(=O)CCCCCCCCCNC(=O)C23CC(COc4cc(-c5ccccc5O)nnc4N)(C2)C3)C(C)(C)C)cc1 [Compound 72, (2S,4R)-1-((S)-2-(10-(3-(((3-amino-6-(2-hydroxyphenyl)pyridazin-4-yl)oxy)methyl)bicyclo[1.1.1]pentane-1-carboxamido)decanamido)-3,3-dimethylbutanoyl)-4-hydroxy-N-(4-(4-methylthiazol-5-yl)benzyl)pyrrolidine-2-carboxamide] | < 50% | B (“B” indicates maximum degradation ≥ 50%) |
| Cc1ncsc1-c1ccc(CNC(=O)[C@@H]2C[C@@H](O)CN2C(=O)[C@@H](NC(=O)CCCCCCCCCCCCC(=O)NC23CC(CCOc4cc(-c5ccccc5O)nnc4N)(C2)C3)C(C)(C)C)cc1 [Compound 49, N1-(3-(2-((3-amino-6-(2-hydroxyphenyl)pyridazin-4-yl)oxy)ethyl)bicyclo[1.1.1]pentan-1-yl)-N14-((S)-1-((2S,4R)-4-hydroxy-2-((4-(4-methylthiazol-5-yl)benzyl)carbamoyl)pyrrolidin-1-yl)-3,3-dimethyl-1-oxobutan-2-yl)tetradecanediamide] | < 50% | C (“C” indicates maximum degradation < 50%) |
| Nc1nnc(-c2ccccc2O)cc1OCCC12CC(NC(=O)CCCCCCOc3cccc4c3C(=O)N(C3CCC(=O)NC3=O)C4=O)(C1)C2 (stereo not shown) [Compound 20, N-[3-(2-[[3-amino-6-(2-hydroxyphenyl)pyridazin-4-yl]oxy]ethyl)bicyclo[1.1.1]pentan-1-yl]-7-[[2-(2,6-dioxopiperidin-3-yl)-1,3-dioxoisoindol-4-yl]oxy]heptanamide] | < 50% | C (“C” indicates maximum degradation < 50%) |
| Cc1ncsc1-c1ccc(CNC(=O)[C@@H]2C[C@@H](O)CN2C(=O)[C@@H](NC(=O)CCCCCCCNC(=O)C23CC(COc4cc(-c5ccccc5O)nnc4N)(C2)C3)C(C)(C)C)cc1 [Compound 71, (2S,4R)-1-((S)-2-(8-(3-(((3-amino-6-(2-hydroxyphenyl)pyridazin-4-yl)oxy)methyl)bicyclo[1.1.1]pentane-1-carboxamido)octanamido)-3,3-dimethylbutanoyl)-4-hydroxy-N-(4-(4-methylthiazol-5-yl)benzyl)pyrrolidine-2-carboxamide] | < 50% | B (“B” indicates maximum degradation ≥ 50%) |
| Cc1nc2cccc(NCCCCCCCCNC(=O)C34CC(COc5cc(-c6ccccc6O)nnc5N)(C3)C4)c2c(=O)n1C1CCC(=O)NC1=O (stereo not shown) [Compound 59, 3-(((3-amino-6-(2-hydroxyphenyl)pyridazin-4-yl)oxy)methyl)-N-(8-((3-(2,6-dioxopiperidin-3-yl)-2-methyl-4-oxo-3,4-dihydroquinazolin-5-yl)amino)octyl)bicyclo[1.1.1]pentane-1-carboxamide] | < 50% | C (“C” indicates maximum degradation < 50%) |

More lines, main results first:

| Dmax [1] | SMILES | BRM HiBit Degradation Maximum (%) (HiBit-BRM fusion protein) |
| --- | --- | --- |
| < 50% | Nc1nnc(-c2ccccc2O)cc1OCC12CC(C(=O)N3CCN(CCCOCC#Cc4ccc5c(c4)C(=O)N(C4CCC(=O)NC4=O)C5=O)CC3)(C1)C2 (stereo not shown) [Compound 52, 5-(3-(3-(4-(3-(((3-amino-6-(2-hydroxyphenyl)pyridazin-4-yl)oxy)methyl)bicyclo[1.1.1]pentane-1-carbonyl)piperazin-1-yl)propoxy)prop-1-yn-1-yl)-2-(2,6-dioxopiperidin-3-yl)isoindoline-1,3-dione] | C (“C” indicates maximum degradation < 50%) |
| < 50% | CN(CCNC(=O)COc1ccc2c(c1)C(=O)N(C1CCC(=O)NC1=O)C2=O)CCNC(=O)C12CC(COc3cc(-c4ccccc4O)nnc3N)(C1)C2 (stereo not shown) [Compound 76, 3-(((3-amino-6-(2-hydroxyphenyl)pyridazin-4-yl)oxy)methyl)-N-(2-((2-(2-((2-(2,6-dioxopiperidin-3-yl)-1,3-dioxoisoindolin-5-yl)oxy)acetamido)ethyl)(methyl)amino)ethyl)bicyclo[1.1.1]pentane-1-carboxamide] | C (“C” indicates maximum degradation < 50%) |
| < 50% | Nc1nnc(-c2ccccc2O)cc1OCCC12CC(NC(=O)C3CCN(CCOc4ccc5c(c4)C(=O)N(C4CCC(=O)NC4=O)C5=O)CC3)(C1)C2 (stereo not shown) [Compound 32, N-(3-(2-((3-amino-6-(2-hydroxyphenyl)pyridazin-4-yl)oxy)ethyl)bicyclo[1.1.1]pentan-1-yl)-1-(2-((2-(2,6-dioxopiperidin-3-yl)-1,3-dioxoisoindolin-5-yl)oxy)ethyl)piperidine-4-carboxamide] | B (“B” indicates maximum degradation ≥ 50%) |
| < 50% | Nc1nnc(-c2ccccc2O)cc1OCC12CC(C(=O)NCCCCNc3ccc4c(c3)C(=O)N(C3CCC(=O)NC3=O)C4=O)(C1)C2 (stereo not shown) [Compound 62, formic acid] | C (“C” indicates maximum degradation < 50%) |
| < 50% | Nc1nnc(-c2ccccc2O)cc1OCC12CC(C(=O)N3CC(CN4CCN(c5ccc6c(c5)C(=O)N(C5CCC(=O)NC5=O)C6=O)CC4)C3)(C1)C2 (stereo not shown) [Compound 100, 5-(4-((1-(3-(((3-amino-6-(2-hydroxyphenyl)pyridazin-4-yl)oxy)methyl)bicyclo[1.1.1]pentane-1-carbonyl)azetidin-3-yl)methyl)piperazin-1-yl)-2-(2,6-dioxopiperidin-3-yl)isoindoline-1,3-dione; formic acid] | C (“C” indicates maximum degradation < 50%) |
| < 50% | Nc1nnc(-c2ccccc2O)cc1OCC12CC(CNC(=O)CCOCCOCCNc3cccc4c3C(=O)N(C3CCC(=O)NC3=O)C4=O)(C1)C2 (stereo not shown) [Compound 11, N-[[3-([[3-amino-6-(2-hydroxyphenyl)pyridazin-4-yl]oxy]methyl)bicyclo[1.1.1]pentan-1-yl]methyl]-3-[2-(2-[[2-(2,6-dioxopiperidin-3-yl)-1,3-dioxoisoindol-4-yl]amino]ethoxy)ethoxy]propanamide] | C (“C” indicates maximum degradation < 50%) |
| < 50% | Nc1nnc(-c2ccccc2O)cc1OCC12CC(CNC(=O)CCN3CC4(C3)CN(c3ccc5c(c3)C(=O)N(C3CCC(=O)NC3=O)C5=O)C4)(C1)C2 (stereo not shown) [Compound 17, N-((3-(((3-amino-6-(2-hydroxyphenyl)pyridazin-4-yl)oxy)methyl)bicyclo[1.1.1]pentan-1-yl)methyl)-3-(6-(2-(2,6-dioxopiperidin-3-yl)-1,3-dioxoisoindolin-5-yl)-2,6-diazaspiro [3.3]heptan-2-yl)propanamide] | C (“C” indicates maximum degradation < 50%) |
| < 50% | Nc1nnc(-c2ccccc2O)cc1OCC12CC(C(=O)N3CC(CCOc4cccc5c4C(=O)N(C4CCC(=O)NC4=O)C5=O)C3)(C1)C2 (stereo not shown) [Compound 78, 4-(2-(1-(3-(((3-amino-6-(2-hydroxyphenyl)pyridazin-4-yl)oxy)methyl)bicyclo[1.1.1]pentane-1-carbonyl)azetidin-3-yl)ethoxy)-2-(2,6-dioxopiperidin-3-yl)isoindoline-1,3-dione] | C (“C” indicates maximum degradation < 50%) |
